Where two headings read alike, the source gives them in different places.
How the values were obtained:
[1] = target: Bcl-xL (Homo sapiens, UniProt Q07817); assay: Time Resolved-Fluorescence Resonance Energy Transfer (TR-FRET) binding assay, competition with probe F-Bak
Method in brief: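 Compounds compete with F-Bak probe for GST-Bcl-xL detected by Tb-anti-GST antibody. Serial dilutions from 50 μM (2× stock) incubated 2 h at room temperature, then read at 340 nm excitation, 520 and 495 nm emission. Ki by Wang's equation, tested without and with 1% human serum.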

[2] = system: Molt-4 human acute lymphoblastic leukemia cells; assay: Molt-4 cell viability assay (CellTiter-Glo, 48 hours, 10% HS); format: cell-based; settings: non-permeabilized cells
Method in brief: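 Cells were seeded at 12,500 per well in medium with 10% human serum and exposed to a 3-fold compound dilution series from 10 μM to 0.0005 μM. After 48 h, viable cells were quantified by CellTiter-Glo luminescence. Each concentration was run in duplicate on at least 3 occasions.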

[3] = system: permeabilized Bcl-xL dependent Molt-4 cells; assay: Cytochrome C release in selectively (digitonin) permeabilized Molt-4 cells; format: cell-based, human; settings: 4 h treatment, read-out: Molt-4 Permeabilized Cyt C Release
Text: The permeabilization of the mitochondrial outer membrane to release proteins from the intermembrane space into the cytosol is a pivotal event in the process of apoptosis. Specifically, the release of cytochrome C triggers the formation of the apoptosome which, in turn, results in caspase activation and other events that will commit the cell to undergo programmed cell death (Goldstein el al., 2005, Cell Death and Differentiation 12:453). The process of mitochondrial outer membrane permeabilization (MOMP) is controlled by the Bcl-2 family members. It is promoted by the multidomain pro-apoptotic proteins Bax and Bak which, upon activation, oligomerize on the outer mitochondrial membrane and form pores to ultimately release cytochrome C. This action is antagonized by the antiapoptotic members, including Bcl-2 and Bcl-xL. Compounds that are capable of inhibiting Bcl-2 or Bcl-xL, for example, in cells that depend upon these proteins for survival, can cause activation of Bax and or Bak, MOMP, release of cytochrome C and the mentioned downstream steps in the apoptotic process. This process of cytochrome C release can be measured in cells via Western blot of both mitochrondrial and cytosolic fractions, and can be used a proxy measurement of apoptosis in cells.
As a means of detecting the ability of a Bcl-xL inhibitor with low cell-permeability to cause release of cytochrome C, the cells can be treated with an agent that causes selective pore formation in the plasma membrane, but not the mitochondrial membrane. Specifically, the cholesterol/phospholipid ratio is much higher in the plasma membrane than the mitochondrial membrane. […] This agent forms insoluble complexes with cholesterol leading to the segregation of cholesterol from its normal phospholipid binding sites. This action, in turn, leads to the formation of holes about 40-50 Å wide in the lipid bilayer. Once the plasma membrane is permeabilized, cytosolic components able to pass over digitonin-formed holes can be washed out, including the cytochrome C that was released from mitochondria to cytosol in the apoptotic cells ((Campos, 2006, Cytometry A 69(6):515-523)).
To determine if Bcl-xL inhibitors were inducing cell death through apoptosis, cytochrome C release was measured in Bcl-xL dependent Molt-4 cells following treatment Specifically, 1×10^6 cells were treated for 4 h (37° C., 5% CO2) with the test compounds in half-log dilutions starting at 3.0 μM and ending at 0.01 μM. Cells were then processed as described in Chen et al., 2011, Mol. Cancer Ther. 10:2340-2350 (the Bcl-2/Bcl-X(L)/Bcl-w inhibitor, navitoclax, enhances the activity of chemotherapeutic agents in vitro and in vivo.).

[4] = in the presence of 1% HS, read-out: Bcl-xL Binding Ki (nM, 1% HS)
[5] = without HS, read-out: Bcl-xL Binding Ki

Bcl-xL, sequence (Q07817 whole entry): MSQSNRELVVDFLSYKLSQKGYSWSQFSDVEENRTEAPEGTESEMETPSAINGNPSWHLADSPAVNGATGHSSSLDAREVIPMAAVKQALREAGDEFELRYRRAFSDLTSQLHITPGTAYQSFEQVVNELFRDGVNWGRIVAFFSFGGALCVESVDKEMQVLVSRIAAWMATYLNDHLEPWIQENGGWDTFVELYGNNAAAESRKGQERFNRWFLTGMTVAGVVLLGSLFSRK

Ki [1, 4] [nM]	Ki [1, 5] [nM]	EC50 ([2]; Homo sapiens, MOLT-4, 48 h) [nM]	EC50 ([3]; Homo sapiens, MOLT-4, 4 h) [nM]	Compound	EC50 [2] [nM]	EC50 [3] [nM]
0.47	< 0.001	774	< 0.5	Cc1c(-c2ccc(-c3ccc4c(c3)N(C(=O)Nc3nc5ccccc5s3)CCC4)nc2C(=O)O)cnn1CC12CC3(C)CC(C)(C1)CC(OCCNCCP(=O)(O)O)(C3)C2 [Example 1.20, 6-[1-(1,3-benzothiazol-2-ylcarbamoyl)-1,2,3,4-tetrahydroquinolin-7-yl]-3-{1-[(3,5-dimethyl-7-(2-[(2-phosphonoethyl)amino]ethoxy}tricyclo[3.3.1.1^3,7]dec-1-yl)methyl]-5-methyl-1H-pyrazol-4-yl}pyridine-2-carboxylic acid]	–	–
7.11	0.006	> 10000	< 0.5	Cc1c(-c2ccc(N3CCc4cccc(C(=O)Nc5nc6cccnc6s5)c4C3)nc2C(=O)O)cnn1CC12CC3(C)CC(C)(C1)CC(OCCNCCS(=O)(=O)O)(C3)C2 [Example 1.22, 3-{1-[(3,5-dimethyl-7-{2-[(2-sulfoethyl)amino]ethoxy}tricyclo[3.3.1.1^3,7]dec-1-yl)methyl]-5-methyl-1H-pyrazol-4-yl}-6-[8-([1,3]thiazolo[5,4-b]pyridin-2-ylcarbamoyl)-3,4-dihydroisoquinolin-2 (1H)-yl]pyridine-2-carboxylic acid]	–	–
0.074	< 0.001	390	< 0.5	Cc1c(-c2ccc(-c3ccc4c(c3)N(C(=O)Nc3nc5ccccc5s3)CCC4)nc2C(=O)O)cnn1CC12CC3(C)CC(C)(C1)CC(OCCNCCS(=O)(=O)O)(C3)C2 [Example 1.24, 6-[1-(1,3-benzothiazol-2-ylcarbamoyl)-1,2,3,4-tetrahydroquinolin-7-yl]-3-{1-[(3,5-dimethyl-7-{2-[(2-sulfoethyl)amino]ethoxy}tricyclo[3.3.1.1^3,7]dec-1-yl)methyl]-5-methyl-1H-pyrazol-4-yl}pyridine-2-carboxylic acid]	–	–
0.083	< 0.001	430	< 0.5	Cc1c(-c2ccc(N3CCc4cccc(C(=O)Nc5nc6ccccc6s5)c4C3)nc2C(=O)O)cnn1CC12CC3(C)CC(C)(C1)CC(OCCNCCC(=O)O)(C3)C2 [Example 1.25, 6-[8-(1,3-benzothiazol-2-ylcarbamoyl)-3,4-dihydroisoquinolin-2 (1H)-yl]-3-{1-[(3-{2-[(2-carboxyethyl)amino]ethoxy}-5,7-dimethyltricyclo[3.3.1.1^3,7]dec-1-yl)methyl]-5-methyl-1H-pyrazol-4-yl)pyridine-2-carboxylic acid]	–	–
0.11	< 0.001	2330	< 0.5	Cc1c(-c2ccc(N3CCc4cccc(C(=O)Nc5nc6ccccc6s5)c4C3)nc2C(=O)O)cnn1CC12CC3(C)CC(C)(C1)CC(OCCN(CCCP(=O)(O)O)C1CCNCC1)(C3)C2 [Example 1.26, 6-[8-(1,3-benzothiazol-2-ylcarbamoyl)-3,4-dihydroisoquinolin-2 (1H)-yl]-3-{1-[(3,5-dimethyl-7-{2-[(3-phosphonopropyl)(piperidin-4-yl)amino]ethoxy}tricyclo[3.3.1.1^3,7]dec-1-yl)methyl]-5-methyl-1H-pyrazol-4-yl}pyridine-2-carboxylic acid]	–	–
0.28	< 0.001	708	< 0.5	Cc1c(-c2ccc(N3CCc4cccc(C(=O)Nc5nc6ccccc6s5)c4C3)nc2C(=O)O)cnn1CC12CC3(C)CC(C)(C1)CC(OCCNC(=O)[C@H](CC(=O)O)NCCC(=O)O)(C3)C2 [Example 1.32, 6-[8-(1,3-benzothiazol-2-ylcarbamoyl)-3,4-dihydroisoquinolin-2 (1H)-yl]-3-(1-{[3-(2-{[N-(2-carboxyethyl)-L-alpha-aspartyl]amino}ethoxy)-5,7-dimethyltricyclo[3.3.1.1^3,7]dec-1-yl]methyl}-5-methyl-1H-pyrazol-4-yl}pyridine-2-carboxylic acid]	–	–
0.203	< 0.001	245	< 0.5	Cc1c(-c2ccc(N3CCc4cccc(C(=O)Nc5nc6ccccc6s5)c4C3)nc2C(=O)O)cnn1CC12CC3(C)CC(C)(C1)CC(OCCN(CCNCCC(=O)O)CCS(=O)(=O)O)(C3)C2 [Example 1.38, 6-[8-(1,3-benzothiazol-2-ylcarbamoyl)-3,4-dihydroisoquinolin-2 (1H)-yl]-3-{1-[(3-{2-[{2-[(2-carboxyethyl)amino]ethyl}(2-sulfoethyl)amino]ethoxy}-5,7-dimethyltricyclo[3.3.1.1^3,7]dec-1-yl)methyl]-5-methyl-1H-pyrazol-4-yl}pyridine-2-carboxylic acid]	–	–
0.174	0.018	1590	< 0.5	Cc1c(-c2ccc(N3CCc4cccc(C(=O)Nc5nc6ncccc6s5)c4C3)nc2C(=O)O)cnn1CC12CC3(C)CC(C)(C1)CC(OCCNCCCP(=O)(O)O)(C3)C2 [Example 1.39, 3-{1-[(3,5-dimethyl-7-{2-[(3-phosphonopropyl)amino]ethoxy}tricyclo[3.3.1.1^3,7]dec-1-yl)methyl]-5-methyl-1H-pyrazol-4-yl}-6-[8-([1,3]thiazolo[4,5-b]pyridin-2-ylcarbamoyl)-3,4-dihydroisoquinolin-2 (1H)-yl]pyridine-2-carboxylic acid]	–	–
0.282	< 0.001	1260	< 0.5	Cc1c(-c2ccc(N3CCc4cccc(C(=O)Nc5nc6ccccc6s5)c4C3)nc2C(=O)O)cnn1CC12CC3(C)CC(C)(C1)CC(OCCN(CCS(=O)(=O)O)C(=O)[C@@H](N)CC(=O)O)(C3)C2 [Example 1.44, 3-{1-[(3-{2-[L-alpha-aspartyl(2-sulfoethyl)amino]ethoxy}-5,7-dimethyltricyclo[3.3.1.1^3,7]dec-1-yl)methyl]-5-methyl-1H-pyrazol-4-yl}-6-[8-(1,3-benzothiazol-2-ylcarbamoyl)-3,4-dihydroisoquinolin-2 (1H)-yl]pyridine-2-carboxylic acid]	–	–
0.00615	< 0.001	68	< 0.5	Cc1c(-c2ccc(N3CCc4c(OCCN)ccc(C(=O)Nc5nc6ccccc6s5)c4C3)nc2C(=O)O)cnn1CC12CC3(C)CC(C)(C1)CC(OCCN(C)CCS(=O)(=O)O)(C3)C2 [Example 1.46, 6-[5-(2-aminoethoxy)-8-(1,3-benzothiazol-2-ylcarbamoyl)-3,4-dihydroisoquinolin-2 (1H)-yl]-3-{1-[(3,5-dimethyl-7-{2-[methyl(2-sulfoethyl)amino]ethoxy}tricyclo[3.3.1.1^3,7]dec-1-yl)methyl]-5-methyl-1H-pyrazol-4-yl}pyridine-2-carboxylic acid]	–	–
0.0294	0.006	197	< 0.5	Cc1c(-c2ccc(N3CCc4c(OCCNCCS(=O)(=O)O)ccc(C(=O)Nc5nc6ccccc6s5)c4C3)nc2C(=O)O)cnn1CC12CC3(C)CC(C)(C1)CC(OCCN(C)CCS(=O)(=O)O)(C3)C2 [Example 1.47, 6-[8-(1,3-benzothiazol-2-ylcarbamoyl)-5-{2-[(2-sulfoethyl)amino]ethoxy}-3,4-dihydroisoquinolin-2 (1H)-yl]-3-{1-[(3,5-dimethyl-7-{2-[methyl(2-sulfoethyl)amino]ethoxy}tricyclo[3.3.1.1^3,7]dec-1-yl)methyl]-5-methyl-1H-pyrazol-4-yl}pyridine-2-carboxylic acid]	–	–

Compound	Ki [1, 4] [nM]	Ki [1, 5] [nM]	EC50 ([2]; Homo sapiens, MOLT-4, 48 h) [nM]	EC50 ([3]; Homo sapiens, MOLT-4, 4 h) [nM]	EC50 [2] [nM]	EC50 [3] [nM]
Cc1c(-c2ccc(N3CCc4cccc(C(=O)Nc5nc6ccccc6s5)c4C3)nc2C(=O)O)cnn1CC12CC3(C)CC(C)(C1)CC(OCCN(C)C(=O)[C@@H](N)CCCC[N+](C)(C)C)(C3)C2 [Example 1.29, N-[(5S)-5-amino-6-{[2-({3-[(4-{6-[8-(1,3-benzothiazol-2-ylcarbamoyl)-3,4-dihydroisoquinolin-2 (1H)-yl]-2-carboxypyridin-3-yl}-5-methyl-1H-pyrazol-1-yl)methyl]-5,7-dimethyltricyclo[3.3.1.1^3,7]dec-1-yl}oxy)ethyl](methyl)amino}-6-oxohexyl]-N,N-dimethylmethanaminium]	0.033	0.009	–	–	935	< 0.5

From patent publication US20240058450A1, “BCL-XL Inhibitory Compounds Having Low Cell Permeability and Antibody Drug Conjugates Including the Same” (AbbVie Inc., priority 2014, published 2024)
